Values quoted from earlier work in US8268905B1, “Compositions containing poly(lactic acid), bacteriocin(s), plasticizers(s), and optionally pore forming agent(s), and methods or making” (The United States of America, as represented by the …, priority 2008, dated 2012).

Conditions: background statement

nisin
maximal temperature at which nisin can retain its bioactivity: 120 °C
